Results: US20220218664A1, “DRUG AND METHOD FOR TREATING OR PREVENTING COMPLICATIONS FROM DIABETES, USING SAID DRUG” (TMS Co., Ltd., priority 2019, published 2022)
“And” between values parts separate entries of the source, which are not always exact repeats. Identical values can stand only once.

Assays:
Format in all cases: in vivo, C57BL/6J male mice
[1] = system: streptozotocin-induced diabetic mice; assay: Sciatic nerve blood flow; conditions: 4th week
Method: (§1) 9-week-old C57BL/6J male mice were purchased and familiarized with an animal facility for 1 week. 200 mg/kg of streptozotocin (streptozotocin; STZ) was administered […] into the peritoneal cavity of 10-week-old mice to prepare streptozotocin-induced diabetic mice (hereinafter also referred to as “STZ administration week 0”). One week after the administration of streptozotocin, blood was collected from the tail vein of the mice, and the blood glucose level (BS) was measured using an automatic blood glucose measuring device (product name: Medisafe (trademark) Mini GR-102, made by Terumo (Co)). Mice having a blood glucose level of 400 mg/dL or more were determined to be diabetic mice.
(§2) The SMTP-44D groups, the edaravone group, and the pregabalin group were administered SMTP-44D (0.3 mg/kg, 3 mg/kg, or 30 mg/kg doses, respectively), edaravone (10 mg/kg dose), or pregabalin (10 mg/kg dose) into the peritoneal cavity once a day for 3 consecutive weeks from the day following the first week to the fourth week after STZ administration.
(§3) Sciatic nerves of the above-mentioned STZ group, SMTP-44D groups, edaravone group, pregabalin group, and control group mice on the 4th week were exposed under isoflurane anesthesia, and then, using the full-field laser perfusion imager, their sciatic nerve blood flows (perfusion unit: PU) were measured. After the sciatic nerve blood flows were measured, a voltage was output from a PowerLab through the […] to impart an electrical stimulus to the sciatic nerves using needle electrodes. The electrical stimulus went through the Analog Stimulus Isolator via recording electrodes attached to the gastrocnemius and was input into the PowerLab, and thus neuromuscular function response curves were measured. The sciatic nerves were stimulated between two points at 8-mm intervals. The sciatic nerve conduction velocity (m/s) was calculated by dividing the […]. The sciatic nerve blood flow and sciatic nerve conduction velocity were measured using a Hot-1 small-sized heating controller and small-sized body temperature retention device (model number: […]-1), maintaining the rectal temperature at 37° C. The measurement results are described in Table 11.

malondialdehyde: MDA = assay: Oxidative stress (MDA, TBARS assay) in sciatic nerve; conditions: 4th week
Method: as §1, §2
The sciatic nerves of the above-mentioned STZ group, SMTP-44D group (30 mg/kg), edaravone group, pregabalin group, and control group mice in the 4th week were homogenized using an RIPA buffer containing a protease inhibitor cocktail. Moreover, centrifugation was conducted at 4° C. for 15 minutes at 1600 g, and the supernatant was collected and used for measuring MDA (μM) and total protein concentration (μg/mL), respectively. MDA was measured using a TBARS Assay Kit. The total protein concentration was measured using a Pierce (Trademark) BCA Protein Assay Kit. Oxidative stress levels (nmol/mg protein) were calculated from MDA (μM) and the total protein concentration (μg/mL).

IL-1β = assay: Inflammatory cytokine IL-1β in sciatic nerve (ELISA); conditions: 4th week
Method: as §1, §2
The sciatic nerves of the above-mentioned STZ group, SMTP-44D group (30 mg/kg), edaravone group, pregabalin group, and control group mice on the 4th week were homogenized using the RIPA buffer containing a protease inhibitor cocktail. Moreover, centrifugation was conducted at 4° C. for 15 minutes at 10,000 g, and the supernatant was collected and used for measuring TNF-α concentration (pg/mL), IL-1β concentration (pg/mL), IL-6 concentration (pg/mL), and total protein concentration (μg/mL), respectively. An ELISA assay kit was used for the TNF-α, IL-1β, and IL-6 concentrations. The total protein concentration was measured by using a Pierce (trademark) BCA Protein Assay Kit. The inflammatory cytokine level (pg/mg protein) in the total protein was calculated from the TNF-α concentration (pg/mL), IL-1β concentration (pg/mL), and IL-6 concentration (pg/mL), and total protein concentration (μg/mL).

[2] = system: streptozotocin-induced diabetic mice; assay: Thickness and G-ratio of myelin in the sciatic nerve; conditions: 4th week
Method: as §1, §2
The above-mentioned STZ group, SMTP-44D (30 mg/kg) group, edaravone group, pregabalin group, and control group mice in the 4th week were dissected to remove the sciatic nerves. The sciatic nerves were fixed using neutral buffered formalin and embedded using an Epon resin, and then semi-thin segments were formed and dyed using toluidine blue. The cross sections of the sciatic nerves in the respective specimens were examined using a microscope equipped with a digital camera at 400× magnification. The thickness of myelin ((diameter of axon including myelin diameter of axon)/2) and G-ratio (diameter of axon/diameter of axon including myelin) were measured.

[3] = system: streptozotocin-induced diabetic mice; assay: Hind plantar blood flow (laser perfusion imager)
Method: as §1, §2
The hind plantar blood flows (perfusion unit: PU) of the above-mentioned STZ group, SMTP-44D groups, edaravone group, pregabalin group, and control group mice were measured under isoflurane anesthesia using a full-field laser perfusion imager.

[4] = system: streptozotocin-induced diabetic mice; assay: Sciatic nerve conduction velocity; conditions: 4th week
Method: as §1, §2, §3

[5] = system: streptozotocin-induced diabetic mice; assay: Von Frey test: evaluating mechanical stimulus
Method: as §1, §2
The above-mentioned STZ group, SMTP-44D groups, edaravone group, pregabalin group, and control group mice were put in grid-like boxes, respectively, and were familiarized for one hour. After the familiarization, by using a Dynamic Plantar Aesthesiometer (tactometer) (manufactured by UGO BASILE Inc.), 1 g/s (that, pressurization increased by 1 g per second) of stimulation was imparted to the hind legs of these mice to measure mechanical thresholds (g) from the start of stimulation to the time when the mice withdrew their legs. The measurements were conducted for both hind legs three times at intervals of three minutes or longer, respectively. A mean value of three mechanical thresholds (g) was calculated for 1 mouse, and then a mean value of the 12 mice for the respective groups was found.

[6] = 0.3 mg/kg i.p. once a day, 0th week (before dosing)
[7] = 0.3 mg/kg i.p. once a day, 1st week (before dosing)
[8] = 0.3 mg/kg i.p. once a day, 2nd week
[9] = 0.3 mg/kg i.p. once a day, 3rd week
[10] = 0.3 mg/kg i.p. once a day, 4th week
[11] = 3 mg/kg i.p. once a day, 0th week (before dosing)
[12] = 3 mg/kg i.p. once a day, 1st week (before dosing)
[13] = 3 mg/kg i.p. once a day, 2nd week
[14] = 3 mg/kg i.p. once a day, 3rd week
[15] = 3 mg/kg i.p. once a day, 4th week
[16] = 30 mg/kg i.p. once a day, 0th week (before dosing)
[17] = 30 mg/kg i.p. once a day, 1st week (before dosing)
[18] = 30 mg/kg i.p. once a day, 2nd week
[19] = 30 mg/kg i.p. once a day, 3rd week
[20] = 30 mg/kg i.p. once a day, 4th week
[21] = 10 mg/kg i.p. once a day, listed as pregabalin
[22] = 10 mg/kg i.p. once a day, listed as Preaabalin
[23] = 10 mg/kg i.p. once a day, 0th week (before dosing)
[24] = 10 mg/kg i.p. once a day, 0th week (before dosing), listed as pregabalin
[25] = 10 mg/kg i.p. once a day, 1st week (before dosing)
[26] = 10 mg/kg i.p. once a day, 1st week (before dosing), listed as pregabalin
[27] = 10 mg/kg i.p. once a day, 2nd week
[28] = 10 mg/kg i.p. once a day, 2nd week, listed as pregabalin
[29] = 10 mg/kg i.p. once a day, 3rd week
[30] = 10 mg/kg i.p. once a day, 3rd week, listed as pregabalin
[31] = 10 mg/kg i.p. once a day, 4th week
[32] = 10 mg/kg i.p. once a day, 4th week, listed as pregabalin

SMILES: CC(C)=CCCC(C)=CCCC1(C)Oc2c(c(O)cc3c2CN(C(C(=O)O)c2ccc(O)cc2)C3=O)CC1O (centres unmarked) [SMTP-44D]
- Sciatic nerve blood flow ([1]; 0.3 mg/kg i.p. once a day): 1116.9±30.4 PU
- Sciatic nerve blood flow ([1]; 3 mg/kg i.p. once a day): 1187.1±31.4 PU
- Sciatic nerve blood flow ([1]; 30 mg/kg i.p. once a day): 1461.0±55.0 PU
- MDA (oxidative stress) (malondialdehyde: MDA; 30 mg/kg i.p. once a day): 1.98±0.51 nmol/mg protein
- IL-1β (IL-1β; 30 mg/kg i.p. once a day): 24.90±4.05 pg/mg protein
- Thickness of myelin ([2]; 30 mg/kg i.p. once a day): 1.58±0.02 μm
- Hind plantar blood flow [3, 6]: 199.8±9.8 PU
- Hind plantar blood flow [3, 7]: 150.7±9.4 PU
- Hind plantar blood flow [3, 8]: 152.9±8.7 PU
- Hind plantar blood flow [3, 9]: 141.0±8.7 PU
- Hind plantar blood flow [3, 10]: 132.3±6.6 PU
- Hind plantar blood flow [3, 11]: 210.7±14.1 PU
- Hind plantar blood flow [3, 12]: 154.8±12.8 PU
- Hind plantar blood flow [3, 13]: 169.3±7.9 PU
- Hind plantar blood flow [3, 14]: 161.3±11.8 PU
- Hind plantar blood flow [3, 15]: 162.1±9.8 PU
- Hind plantar blood flow [3, 16]: 201.4±6.8 PU
- Hind plantar blood flow [3, 17]: 142.7±7.1 PU
- Hind plantar blood flow [3, 18]: 185.0±8.4 PU
- Hind plantar blood flow [3, 19]: 234.7±11.2 PU
- Hind plantar blood flow [3, 20]: 214.9±12.2 PU
- Sciatic nerve conduction velocity ([4]; 0.3 mg/kg i.p. once a day): 54.9±1.2 m/s
- Sciatic nerve conduction velocity ([4]; 3 mg/kg i.p. once a day): 56.9±2.8 m/s and 56.9 ± 28 m/s
- Sciatic nerve conduction velocity ([4]; 30 mg/kg i.p. once a day): 63.8±2.0 m/s
- von Frey test mechanical threshold [5, 6]: 5.2 ± 0.1 g
- von Frey test mechanical threshold [5, 7]: 4.1 ± 0.1 g
- von Frey test mechanical threshold [5, 8]: 3.5 ± 0.2 g
- von Frey test mechanical threshold [5, 9]: 3.7 ± 0.1 g
- von Frey test mechanical threshold [5, 10]: 3.6 ± 0.2 g
- von Frey test mechanical threshold [5, 11]: 4.9 ± 0.2 g
- von Frey test mechanical threshold [5, 12]: 4.2 ± 0.1 g
- von Frey test mechanical threshold [5, 13]: 4.0±0.1 g and 4.0 ± 0.1 ##− g
- von Frey test mechanical threshold [5, 14]: 3.9 ± 0.2 g
- von Frey test mechanical threshold [5, 15]: 4.0 ± 0.1 g
- von Frey test mechanical threshold [5, 16]: 4.9 ± 0.1 g
- von Frey test mechanical threshold [5, 17]: 3.9 ± 0.2 g
- von Frey test mechanical threshold [5, 18]: 5.4 ± 0.1 g
- von Frey test mechanical threshold [5, 19]: 5.3 ± 0.1 g
- von Frey test mechanical threshold [5, 20]: 5.2 ± 0.1 g

SMILES: CC(C)C[C@H](CN)CC(=O)O [Pregabalin, pregabalin]
- Sciatic nerve blood flow ([1]; 10 mg/kg i.p. once a day): 1114.1 ± 27.5 PU
- Sciatic nerve blood flow [1, 21]: 1114.1±27.5 PU
- MDA (oxidative stress) (malondialdehyde: MDA; 10 mg/kg i.p. once a day): 4.02 ± 0.59 nmol/mg protein
- MDA (oxidative stress) (malondialdehyde: MDA; [21]): 4.02±0.59 nmol/mg protein
- IL-1β (IL-1β; 10 mg/kg i.p. once a day): 58.04 ± 4.47 pg/mg protein
- IL-1β (IL-1β; [21]): 58.04±4.47 pg/mg protein
- G-ratio [2, 22]: 0.665 ± 0.006
- Thickness of myelin [2, 22]: 1.29 ± 0.03 μm
- G-ratio [2, 21]: 0.665±0.006
- Thickness of myelin [2, 21]: 1.29±0.03 μm
- Hind plantar blood flow [3, 23]: 214.2 ± 7.6 PU
- Hind plantar blood flow [3, 24]: 214.2±7.6 PU
- Hind plantar blood flow [3, 25]: 159.8 ± 6.3 PU
- Hind plantar blood flow [3, 26]: 159.8±6.3 PU
- Hind plantar blood flow [3, 27]: 144.7 ± 8.3 PU
- Hind plantar blood flow [3, 28]: 144.7±8.3 PU
- Hind plantar blood flow [3, 29]: 152.7 ± 9.5 PU
- Hind plantar blood flow [3, 30]: 152.7±9.5 PU
- Hind plantar blood flow [3, 31]: 151.2 ± 8.0 PU
- Hind plantar blood flow [3, 32]: 151.2±8.0 PU
- Sciatic nerve conduction velocity ([4]; 10 mg/kg i.p. once a day): 55.9 ± 1.4 m/s
- Sciatic nerve conduction velocity [4, 21]: 55.9±1.4 m/s
- von Frey test mechanical threshold [5, 23]: 5.0 ± 0.2 g
- von Frey test mechanical threshold [5, 24]: 5.0 ± 0.2 g
- von Frey test mechanical threshold [5, 25]: 4.0 ± 0.1 g
- von Frey test mechanical threshold [5, 26]: 4.0 ± 0.1 g
- von Frey test mechanical threshold [5, 27]: 4.6 ± 0.2 g
- von Frey test mechanical threshold [5, 28]: 4.6 ± 0.2 g
- von Frey test mechanical threshold [5, 29]: 4.6 ± 0.2 g
- von Frey test mechanical threshold [5, 30]: 4.6 ± 0.2 g
- von Frey test mechanical threshold [5, 31]: 4.7 ± 0.2 g
- von Frey test mechanical threshold [5, 32]: 4.7 ± 0.2 g
